# Results taken from patent US7176276B2, “Antimicrobial peptide and use thereof” (Toagosei Co., Ltd., priority 2003, dated 2007).
# Ends that are not written are not given here.
# Experiments:
# Format in all cases: cell-based
# [1] = system: Salmonella enteritidis IFO 3313; conditions: IFO 3313, 24 h
# Procedure: (§1) That is, each sample was diluted with a liquid bouillon medium (mfd. by DIFCO, product name “NUTRIENT BROTH Dehydrated”) to a peptide concentration of 500, 250, 125, 62.5, 31.3, 15.6, 7.8, 3.9, 1.9, 1.0 or 0.5 […] and dispensed in 150 μl portions into a 96 well microplate. On the other hand, a cell suspension (about 2×10^6 cells/ml) prepared by statically culturing each strain at 37° C. for 18 hours in LB Broth, Lennox (mfd. by DIFCO) was inoculated into each well of the 96 well microplate in an amount equivalent to that of the drug solution (the aforementioned peptide-containing bouillon medium). After the inoculation, the culturing was started in an incubator of 37° C., and the presence of bacterial growth was examined based on the turbidity after 24 hours. The minimum peptide concentration by which increase in the turbidity due to bacterial growth was not observed at the time of the measurement was defined as the MIC in this Example.
# [2] = system: Staphylococcus aureus IFO 12732; conditions: IFO 12732, 24 h
# Procedure: (§2) Gram-Positive Bacteria: • Staphylococcus aureus IFO 12732 • Staphylococcus aureus COL1 (MRSA) • Bacillus cereus IFO 3001 • Bacillus subtilis ATCC 6633 • Micrococcus luteus IFO 12708
# as §1
# Bacillus cereus IFO 3001 = conditions: IFO 3001, 24 h
# Procedure: as §2, §1
# [3] = system: Bacillus subtilis ATCC 6633; conditions: ATCC 6633, 24 h
# Procedure: as §2, §1
# [4] = system: Micrococcus luteus IFO 12708; conditions: IFO 12708, 24 h
# Procedure: as §2, §1
# [5] = system: Klebsiella pneumoniae ATCC 4352; conditions: ATCC 4352, 24 h
# Procedure: (§3) Escherichia coli IFO 12713 • Escherichia coli 0157:H7 sakai • Klebsiella pneumoniae ATCC 4352 • Pseudomonas aeruginosa ATCC 10145
# as §1
# [6] = system: Pseudomonas aeruginosa ATCC 10145; conditions: ATCC 10145, 24 h
# Procedure: as §3, §1
# [7] = system: Escherichia coli IFO 12713; conditions: IFO 12713, 24 h
# Procedure: as §3, §1
# [8] = system: Staphylococcus aureus COL1 (MRSA); conditions: COL1, 24 h
# Procedure: as §2, §1
Substance,MIC [1] [µg/mL],MIC [2] [µg/mL],MIC (Bacillus cereus IFO 3001) [µg/mL],MIC [3] [µg/mL],MIC [4] [µg/mL],MIC [5] [µg/mL],MIC [6] [µg/mL],MIC [7] [µg/mL],MIC [8] [µg/mL]
"LLRKWWWKRLL-NH2 (C-terminus assumed) [compound 1, LLRKWWWKRLL, reference compound]",15.6,1.95,62.5,0.98,7.8,,,,
"RLLRKWWWKRLL-NH2 (C-terminus assumed) [Sample 1, RLLRKWWWKRLL]",3.9,1.95,62.5,1.95,3.9,7.8,15.6,15.6,
"RRLLRKWWWKRLL-NH2 (C-terminus assumed) [Sample 2, RRLLRKWWWKRLL]",3.9,1.95,62.5,1.95,3.9,3.9,,7.8,15.6
"RRRLLRKWWWKRLL-NH2 (C-terminus assumed) [Sample 3, RRRLLRKWWWKRLL]",3.9,1.95,62.5,1.95,7.8,3.9,15.6,15.6,
